# Experimental data: ChEMBL document CHEMBL4043145, “Pyridine-pyrimidine amides that prevent HGF-induced epithelial scattering by two distinct mechanisms” (Bioorg Med Chem Lett, 2017)
# The source made the active and inactive calls. The rule behind the calls is not given here.
# Tests used:
# Homo sapiens = species on record: Homo sapiens; test: Binding affinity to tubulin (unknown origin) by CD spectroscopic method
# Bos taurus [1] = species on record: Bos taurus; test: Inhibition of colchicine binding to bovine brain tubulin up to 25 uM by fluorescence based assay relative to control
# Bos taurus [2] = species on record: Bos taurus; test: (§1) Inhibition of bovine brain tubulin polymerization
# [3] = as §1; parameters: species or system Bos taurus
# [4] = Binding affinity to tubulin (unknown origin) by isothermal titration calorimetric analysis; parameters: species or system Homo sapiens
# A2780 = test: Antiproliferative activity against human A2780 cells; assay type: functional, cell-based
# U-251 = test: Antiproliferative activity against human U251 cells; assay type: functional
# Hs-578T = test: Antiproliferative activity against human Hs 578T cells; assay type: functional
# A549 [5] = test: Antiproliferative activity against human A549 cells; assay type: functional
# 786-0 = test: Antiproliferative activity against human 786-0 cells; assay type: functional
# LOX IMVI = test: Antiproliferative activity against human LOXIMVI cells; assay type: functional
# ACHN = test: Antiproliferative activity against human ACHN cells; assay type: functional
# Malme-3M = test: Antiproliferative activity against human MALME-3M cells; assay type: functional
# HCC 2998 = test: Antiproliferative activity against human HCC2998 cells; assay type: functional
# MFE-280 = test: Antiproliferative activity against human MFE280 cells; assay type: functional
# UO-31 = test: Antiproliferative activity against human UO31 cells; assay type: functional
# SN12C = test: Antiproliferative activity against human SN12C cells; assay type: functional
# M14 = test: Antiproliferative activity against human M14 cells; assay type: functional
# SF-295 = test: Antiproliferative activity against human SF295 cells; assay type: functional
# OVCAR-3 = test: Antiproliferative activity against human OVCAR3 cells; assay type: functional
# TK-10 = test: Antiproliferative activity against human TK10 cells; assay type: functional
# NCI-H1975 = test: Antiproliferative activity against human NCI-H1975 cells; assay type: functional
# A498 = test: Antiproliferative activity against human A498 cells; assay type: functional
# HPAC = test: Antiproliferative activity against HPAC; assay type: functional; conditions: Homo sapiens
# PANC-1 = test: Antiproliferative activity against human PANC1 cells; assay type: functional
# SW-620 = test: Antiproliferative activity against human SW620 cells; assay type: functional
# SF-268 = test: Antiproliferative activity against human SF268 cells; assay type: functional
# HepG2 = test: Antiproliferative activity against human HepG2 cells; assay type: functional
# K562 = test: Antiproliferative activity against human K562 cells; assay type: functional
# NCI-H226 = test: Antiproliferative activity against human NCI-H226 cells; assay type: functional
# NCI-H23 = test: Antiproliferative activity against human NCI-H23 cells; assay type: functional
# OVCAR-5 = test: Antiproliferative activity against human OVCAR5 cells; assay type: functional
# SK-OV-3 = test: Antiproliferative activity against human SKOV3 cells; assay type: functional
# BT-20 = test: Antiproliferative activity against human BT20 cells; assay type: functional
# HL-60(TB) = test: Antiproliferative activity against human HL-60(TB) cells; assay type: functional
# SF-539 = test: Antiproliferative activity against human SF539 cells; assay type: functional
# OVCAR-8 = test: Antiproliferative activity against human OVCAR8 cells; assay type: functional
# HEC-1-A = test: Antiproliferative activity against human Hec1A cells; assay type: functional
# VCaP = test: Antiproliferative activity against human VCaP cells; assay type: functional
# T98G = test: Antiproliferative activity against human T98G cells; assay type: functional
# HCT-116 = test: Antiproliferative activity against human HCT116 cells; assay type: functional
# MIA PaCa-2 = test: Antiproliferative activity against human MIAPaCa2 cells; assay type: functional
# SR = test: Antiproliferative activity against human SR cells; assay type: functional
# RPMI-8226 = test: Antiproliferative activity against human RPMI8226 cells; assay type: functional
# NCI-H522 = test: Antiproliferative activity against human NCI-H522 cells; assay type: functional
# AN3-CA = test: Antiproliferative activity against human AN3CA cells; assay type: functional
# [6] = Antiproliferative activity against human HER218 cells; assay type: functional
# NCI-H460 = test: Antiproliferative activity against human NCI-H460 cells; assay type: functional
# MCF7 [7] = test: Antiproliferative activity against human MCF7 cells at 10 uM relative to control; assay type: functional, cell-based
# [8] = Antiproliferative activity against human NCI-H660 cells; assay type: functional
# MDA-MB-468 = test: Antiproliferative activity against human MDA-MB-468 cells; assay type: functional
# COLO 205 = test: Antiproliferative activity against human COLO205 cells; assay type: functional
# NCI-H322M = test: Antiproliferative activity against human NCI-H322M cells; assay type: functional
# DU-145 = test: Antiproliferative activity against human DU145 cells; assay type: functional
# PC-3 = test: Antiproliferative activity against human PC3 cells; assay type: functional
# MDA-MB-231 = test: Antiproliferative activity against human MDA-MB-231/ATCC cells; assay type: functional
# OVCAR-4 = test: Antiproliferative activity against human OVCAR4 cells; assay type: functional
# CCRF-CEM = test: Antiproliferative activity against human CCRF-CEM cells; assay type: functional
# U-87 MG = test: Antiproliferative activity against human U87MG cells; assay type: functional, U-87MG ATCC
# SK-UT-1 = test: Antiproliferative activity against human SK-UT-1 cells; assay type: functional
# LNCaP = test: Antiproliferative activity against human LNCAP cells; assay type: functional
# SK-MEL-2 = test: Antiproliferative activity against human SK-MEL-2 cells; assay type: functional
# NCI/ADR-RES = test: Antiproliferative activity against human NCI/ADR-RES cells; assay type: functional
# HOP-62 = test: Antiproliferative activity against human HOP62cells; assay type: functional
# KM12 = test: Antiproliferative activity against human KM12 cells; assay type: functional
# A549 [9] = test: Antiproliferative activity against human A549/ATCC cells; assay type: functional
# HT-29 = test: Antiproliferative activity against human HT-29 cells; assay type: functional
# MDCK-II = test: Antimigratory activity against MDCK2 cells assessed as inhibition of HGF-induced cell scattering at 1 uM pretreated for 18 hrs followed by HGF addition measured after 20 to 24 hrs by crystal violet staining-based assay relative to control; assay type: functional; conditions: Canis lupus familiaris
# CAKI-1 = test: Antiproliferative activity against human Caki1 cells; assay type: functional
# UACC-62 = test: Antiproliferative activity against human UACC62 cells; assay type: functional
# CWR22R = test: Antiproliferative activity against human 22Rv1 cells; assay type: functional
# RL95-2 = test: Antiproliferative activity against human RL95-2 cells; assay type: functional
# HCT-15 = test: Antiproliferative activity against human HCT15 cells; assay type: functional
# MDA-MB-435 = test: Antiproliferative activity against human MDA-MB-435 cells; assay type: functional
# IGROV-1 = test: Antiproliferative activity against human IGROV1 cells; assay type: functional
# SK-MEL-5 = test: Antiproliferative activity against human SK-MEL-5 cells; assay type: functional
# MCF7 [10] = test: Antiproliferative activity against human MCF7 cells; assay type: functional
# SW480 = test: Antiproliferative activity against human SW480 cells; assay type: functional
# HOP-92 = test: Antiproliferative activity against human HOP92 cells; assay type: functional
# MFE-296 = test: Antiproliferative activity against human MFE296 cells; assay type: functional
# T47D = test: Antiproliferative activity against human T47D cells; assay type: functional
# MOLT-4 = test: Antiproliferative activity against human MOLT4 cells; assay type: functional
# SNB-19 = test: Antiproliferative activity against human SNB19 cells; assay type: functional
# RXF 393 = test: Antiproliferative activity against human RXF393 cells; assay type: functional
structure (smiles),measurement,setting,value
Cc1ncc(C(=O)Nc2ccc(-c3cccc(S(=O)(=O)C4CC4)c3)cn2)cn1,Activity,Homo sapiens,Active
same,inhibition,Bos taurus [1],70%
same,inhibition,Bos taurus [2],Dose-dependent effect
same,IC50,[3],240 nM
same,Kd,[4],190 nM
O=C(Nc1ccc(-c2ccccc2)cn1)c1cncnc1,EC50,A2780,74 nM
same,GI50,A2780,40 nM
same,GI50,U-251,113 nM
same,GI50,Hs-578T,160 nM
same,GI50,A549 [5],204 nM
same,GI50,786-0,591 nM
same,GI50,LOX IMVI,121 nM
same,GI50,ACHN,271 nM
same,GI50,Malme-3M,77 nM
same,GI50,HCC 2998,1010 nM
same,GI50,MFE-280,> 10000 nM
same,GI50,UO-31,2110 nM
same,GI50,SN12C,155 nM
same,GI50,M14,44 nM
same,GI50,SF-295,86 nM
same,GI50,OVCAR-3,47 nM
same,GI50,TK-10,317 nM
same,GI50,NCI-H1975,271 nM
same,GI50,A498,48 nM
same,GI50,HPAC,154 nM
same,GI50,PANC-1,212 nM
same,GI50,SW-620,43 nM
same,GI50,SF-268,1020 nM
same,GI50,HepG2,94 nM
same,GI50,K562,46 nM
same,GI50,NCI-H226,613 nM
same,GI50,NCI-H23,660 nM
same,GI50,OVCAR-5,605 nM
same,GI50,SK-OV-3,315 nM
same,GI50,BT-20,342 nM
same,GI50,HL-60(TB),53 nM
same,GI50,SF-539,110 nM
same,GI50,OVCAR-8,240 nM
same,GI50,HEC-1-A,178 nM
same,GI50,VCaP,246 nM
same,GI50,T98G,153 nM
same,GI50,HCT-116,40 nM
same,GI50,MIA PaCa-2,194 nM
same,GI50,SR,42 nM
same,GI50,RPMI-8226,91 nM
same,GI50,NCI-H522,34 nM
same,GI50,AN3-CA,53 nM
same,GI50,[6],72 nM
same,GI50,NCI-H460,41 nM
same,EC50,MCF7 [7],74 nM
same,GI50,[8],135 nM
same,GI50,MDA-MB-468,29 nM
same,GI50,COLO 205,47 nM
same,GI50,NCI-H322M,512 nM
same,GI50,DU-145,305 nM
same,GI50,PC-3,118 nM
same,GI50,MDA-MB-231,256 nM
same,GI50,OVCAR-4,> 10000 nM
same,GI50,CCRF-CEM,199 nM
same,GI50,U-87 MG,260 nM
same,GI50,SK-UT-1,55 nM
same,GI50,LNCaP,361 nM
same,GI50,SK-MEL-2,53 nM
same,GI50,NCI/ADR-RES,40 nM
same,GI50,HOP-62,> 10000 nM
same,GI50,KM12,39 nM
same,GI50,A549 [9],61 nM
same,GI50,HT-29,38 nM
same,inhibition at 1 µM,MDCK-II,238%
same,GI50,CAKI-1,91 nM
same,GI50,UACC-62,69 nM
same,GI50,CWR22R,150 nM
same,GI50,RL95-2,86 nM
same,GI50,HCT-15,45 nM
same,GI50,MDA-MB-435,22 nM
same,GI50,IGROV-1,869 nM
same,GI50,SK-MEL-5,43 nM
same,GI50,MCF7 [10],37 nM
same,GI50,SW480,46 nM
same,GI50,HOP-92,96 nM
same,GI50,MFE-296,26 nM
same,GI50,T47D,> 10000 nM
same,GI50,MOLT-4,297 nM
same,GI50,SNB-19,370 nM
same,GI50,RXF 393,124 nM
